Data set [1] in a line: Plasma protein binding by equilibrium dialysis, human. The conditions noted are these: for recovery at 6 h, 1 µM / fraction unbound at 6 h, 1 μM: human, plasma; for fraction unbound at 6 h, 1 μM: read-out: % Bound (converted). Format: in vitro ADME. As to the method: (§1) The final concentration of compound was 1 μM. The final concentration of DMSO was 0.5%. Ketoconazole was used as positive control in the assay.
(§2) The assay was performed in duplicate.
(§3) All calculations were carried out using Microsoft Excel. […] The percentages of bound compound were calculated as follows: […]
(§4) Ketoconazole was used as positive control in the assay.
For orientation: In equilibrium dialysis only unbound substance equilibrates across the membrane.

Data set [2] can be described thus: Plasma protein binding by equilibrium dialysis, mouse. Format: in vitro ADME. The conditions noted are these: for recovery at 6 h, 1 µM: CD-1, mouse, plasma. The protocol:
as §1, §2, §3, §4

The nature of data set [3]: Plasma protein binding by equilibrium dialysis, rat. As to the method: 1. The Frozen Plasma (Stored at −80° C.) was Thawed Immediately in a 37° C. Water Bath.
The working solution of test compounds and control compound was prepared in DMSO at the concentration of 200 μM, and then the working solution was spiked into plasma. The final concentration of compound was 1 μM. The final concentration of DMSO was 0.5%. Ketoconazole was used as positive control in the assay.
The dialysis membranes were soaked in ultrapure water for 60 minutes to separate strips, then in 20% ethanol for 20 minutes, finally in dialysis buffer for 20 minutes.
The dialysis set up was assembled according to the manufacturer's instruction. Each Cell was with 150 μL of plasma sample and dialyzed against equal volume of dialysis buffer (PBS). The assay was performed in duplicate. The dialysis plate was sealed and incubated in an incubator at 37° C. with 5% CO2 at 100 rpm for 6 hours. At the end of incubation, 50 μL of samples from both buffer and plasma chambers were transferred to wells of a 96-well plate.
50 μL of plasma was added to each buffer samples and an equal volume of PBS was supplemented to the collected plasma sample. 400 μL of precipitation buffer acetonitrile containing internal standards (IS, 200 nM labetalol, 100 nM tolbutamide and 100 nM ketoprofen) was added to precipitate protein and release compounds. Samples were vortexed for 2 minutes and centrifuged for 30 minutes at 3,220 g. Aliquot of 50 μL of the supernatant was diluted by 150 μL acetonitrile containing internal standards: ultra-pure H2O=1:1, and the mixture was used for LC-MS/MS analysis.
All calculations were carried out using Microsoft Excel. The concentrations of test compounds in the buffer and plasma chambers were determined from peak area ratios. The percentages of bound compound were calculated as follows: […]
The working solution of test compounds and control compound was prepared in DMSO at the concentration of 200 μM, and then the working solution was spiked into plasma. The final concentration of compound was […]. The final concentration of DMSO was 0.5%. Ketoconazole was used as positive control in the assay.

Data set [4] can be described thus: Plasma protein binding by equilibrium dialysis, dog. Format: in vitro ADME. To be noted: for recovery at 6 h, 1 µM: dog. As to the method:
as §1, §2, §3, §4

Setting [5] is: human plasma, equilibrium dialysis, 37° C., 6 hours.
Setting [6] is: mouse plasma, equilibrium dialysis, 37° C., 6 hours.

The values that follow come from patent US12606543B2, “Indole derivatives as serotonergic agents useful for the treatment of disorders related thereto” (priority 2023, dated 2026).

As to `CC(=O)N1CCN(c2ccc(OCC3COC(Cn4ccnc4)(c4ccc(Cl)cc4Cl)O3)cc2)CC1` (stereo not shown) [Ketoconazole, reference compound], the “% Remaining @ 6 hours” value in data set [1] (Human plasma, 1 μM, 6 hours, 37° C.) was found to be 114.03%; in data set [1] (human plasma, 6 hours) it was 99.64%; in data set [2] (Mouse plasma, 1 μM, 6 hours, 37° C.) it was 103.60%; in data set [2] (mouse plasma, 6 hours), 108.54%; in data set [3] (Rat plasma, 1 μM, 37° C.) it was 101.20%; in data set [3] (rat plasma), 109.42%. The “% Remaining @ 6 hours” value in data set [4] (Dog plasma, 1 μM, 6 hours, 37° C.) worked out at 92.22%; in data set [4] (dog plasma, 6 hours), 87.36%. Moreover, the recovery at 6 h, 1 µM was determined as 112% in data set [1] (Human plasma, 1 μM, equilibrium dialysis 6 hours); 101% in data set [1] (setting [5]); 109% in data set [2] (Mouse plasma, 1 μM, equilibrium dialysis 6 hours); 94.7% in data set [2] (setting [6]); 105% in data set [3] (SD, rat); 101% in data set [3] (Sprague-Dawley (SD), rat). For the same compound, the recovery at 6 h, 1 µM in data set [4] (Beagle, Dog plasma, 1 μM, equilibrium dialysis 6 hours) amounted to 87.2%; in data set [4] (Beagle, dog plasma, equilibrium dialysis, 37° C., 6 hours) it was 86.1%. Besides, the fraction unbound at 6 h, 1 μM was 0.0088 in data set [1] (Human plasma, 1 μM, equilibrium dialysis 6 hours, 37° C.); 0.0076 in data set [1] (setting [5]); 0.0068 in data set [2] (CD-1, Mouse plasma, 1 μM, equilibrium dialysis 6 hours, 37° C., read-out: % Bound (converted)); 0.0045 in data set [3] (Sprague-Dawley, rat, plasma); 0.0105 in data set [4] (Beagle, dog plasma, equilibrium dialysis, 37° C., 6 hours, read-out: % Bound (converted)). The “% Bound” value in data set [2] (setting [6]) worked out at 99.32%.
